Source: US11926645B2, “Compounds and methods for treatment of viral infections” (priority 2020, dated 2024)
Like-named read-outs stand apart in the source and are kept apart here.

Experiments:
Type in all cases: cell-based
RSV strain A2 = assay: RSV antiviral assay (Hep2), EC50-Hep2/B1-384; conditions: human respiratory syncytial virus, HEp-2, 96 h; Hep2 cells, 4 days, Cell-Titer Glo
SARS-CoV-2-Nluc viruses = assay: microbe, parasite or virus in culture
in vitro = conditions: human
Method: The cytotoxicity of compounds was determined in A549-hACE2 cells in the following manner. Compounds (200 nL) were spotted onto 384-well Grenier plates prior to seeding 5000 A549-hACE2 cells/well in a volume of 40 μL culture medium. The plates were incubated at 37° C. for 48 hours with 5% CO2. On day 2, 40 μL of CellTiter-Glo (Promega) was added and mixed 5 times.

[1] = test system: RSV-Fluc (Respiratory Syncytial virus strain A2 containing the firefly luciferase reporter); assay: microbe, parasite or virus in culture; conditions: human respiratory syncytial virus, 72 h, NHBE cells, three days
[2] = Severe acute respiratory syndrome coronavirus 2, 48 h; read-out: SARS-CoV2 EC50
[3] = Severe acute respiratory syndrome coronavirus 2, 48 h, read-out: SARS-CoV2 EC50

Row | Compound | EC50 (RSV strain A2) | EC50 (SARS-CoV-2-Nluc viruses; [2]) | CC50 at 48 h (in vitro) | EC50 [1] | EC50 (SARS-CoV-2-Nluc viruses; [3]) | CC50 (in vitro; 48 hours, CellTiter-Glo, read-out: A549-hACE2 CC50)
1 | CC(C)[C@H](N)C(=O)OC[C@H]1O[C@@](C#N)(c2ccc3c(N)ncnn23)[C@H](O)[C@@H]1O [Compound 8, ((2R,3S,4R,5R)-5-(4-aminopyrrolo[2,1-f][1,2,4]triazin-7-yl)-5-cyano-3,4-dihydroxytetrahydrofuran-2-yl)methyl L-valinate] | 904 nM | 2700 nM | > 100000 nM | > 5000 nM |  | 
2 | CC(C)C(=O)O[C@H]1[C@@H](OC(=O)C(C)C)[C@](C#N)(c2ccc3c(N)ncnn23)O[C@@H]1COC(=O)C(C)(C)N [Compound 11, (2R,3R,4R,5R)-5-(((2-amino-2-methylpropanoyl)oxy)methyl)-2-(4-aminopyrrolo[2,1-f][1,2,4]triazin-7-yl)-2-cyanotetrahydrofuran-3,4-diyl bis(2-methylpropanoate)] | 387 nM | 2600 nM | > 100000 nM | 301 nM |  | 
3 | CC(C)C(=O)O[C@H]1[C@@H](OC(=O)C(C)C)[C@](C#N)(c2ccc3c(N)ncnn23)O[C@@H]1COC(=O)[C@@H](N)C(C)C [Compound 12, (2R,3R,4R,5R)-5-(((L-valyl)oxy)methyl)-2-(4-aminopyrrolo[2,1-f][1,2,4]triazin-7-yl)-2-cyanotetrahydrofuran-3,4-diylbis(2-methylpropanoate)] | 420 nM | 3300 nM | > 50000 nM | 169 nM |  | 
4 | CC(C)CC(=O)OC[C@H]1O[C@@](C#N)(c2ccc3c(N)ncnn23)[C@H](O)[C@@H]1O [Compound 16, ((2R,3S,4R,5R)-5-(4-aminopyrrolo[2,1-f][1,2,4]triazin-7-yl)-5-cyano-3,4-dihydroxytetrahydrofuran-2-yl)methyl 3-methylbutanoate] | 216 nM |  | > 10000 nM | 575 nM | 1220 nM | 
5 | N#C[C@@]1(c2ccc3c(N)ncnn23)O[C@H](COC(=O)C2CCCCC2)[C@@H](O)[C@H]1O [Compound 17, ((2R,3S,4R,5R)-5-(4-aminopyrrolo[2,1-f][1,2,4]triazin-7-yl)-5-cyano-3,4-dihydroxytetrahydrofuran-2-yl)methyl cyclohexanecarboxylate] | 213 nM | 790 nM | > 10000 nM | 1180 nM |  | 
6 | CCCC(CCC)C(=O)OC[C@H]1O[C@@](C#N)(c2ccc3c(N)ncnn23)[C@H](O)[C@@H]1O [Compound 18, ((2R,3S,4R,5R)-5-(4-aminopyrrolo[2,1-f][1,2,4]triazin-7-yl)-5-cyano-3,4-dihydroxytetrahydrofuran-2-yl)methyl 2-propylpentanoate] | 172 nM |  | > 10000 nM | 224 nM | 940 nM | 
7 | CCC(CC)C(=O)OC[C@H]1O[C@@](C#N)(c2ccc3c(N)ncnn23)[C@H](O)[C@@H]1O [Compound 19, ((2R,3S,4R,5R)-5-(4-aminopyrrolo[2,1-f][1,2,4]triazin-7-yl)-5-cyano-3,4-dihydroxytetrahydrofuran-2-yl)methyl 2-ethylbutanoate] | 238 nM | 1450 nM | > 10000 nM | 261 nM |  | 
8 | CCCCCCCC(=O)OC[C@H]1O[C@@](C#N)(c2ccc3c(N)ncnn23)[C@H](O)[C@@H]1O [Compound 20, ((2R,3S,4R,5R)-5-(4-aminopyrrolo[2,1-f][1,2,4]triazin-7-yl)-5-cyano-3,4-dihydroxytetrahydrofuran-2-yl)methyl octanoate] | 272 nM | 610 nM | > 10000 nM | 841 nM |  | 
9 | CC(C)(C)CC(=O)OC[C@H]1O[C@@](C#N)(c2ccc3c(N)ncnn23)[C@H](O)[C@@H]1O [Compound 21, ((2R,3S,4R,5R)-5-(4-aminopyrrolo[2,1-f][1,2,4]triazin-7-yl)-5-cyano-3,4-dihydroxytetrahydrofuran-2-yl)methyl 3,3-dimethylbutanoate] | 2280 nM | 11400 nM | > 10000 nM | 1850 nM |  | 
10 | N#C[C@@]1(c2ccc3c(N)ncnn23)O[C@H](COC(=O)Cc2ccccc2)[C@@H](O)[C@H]1O [Compound 22, ((2R,3S,4R,5R)-5-(4-aminopyrrolo[2,1-f][1,2,4]triazin-7-yl)-5-cyano-3,4-dihydroxytetrahydrofuran-2-yl)methyl 2-phenylacetate] | 218 nM | 850 nM |  | 790 nM |  | > 10000 nM
11 | Cc1ccc(C(=O)OC[C@H]2O[C@@](C#N)(c3ccc4c(N)ncnn34)[C@H](O)[C@@H]2O)cc1 [Compound 23, ((2R,3S,4R,5R)-5-(4-aminopyrrolo[2,1-f][1,2,4]triazin-7-yl)-5-cyano-3,4-dihydroxytetrahydrofuran-2-yl)methyl 4-methylbenzoate] | 197 nM | 1090 nM | > 10000 nM | 249 nM |  | 
12 | N#C[C@@]1(c2ccc3c(N)ncnn23)O[C@H](COC(=O)C2CC3CCCC3C2)[C@@H](O)[C@H]1O (stereo partly drawn) [Compound 24, ((2R,3S,4R,5R)-5-(4-aminopyrrolo[2,1-f][1,2,4]triazin-7-yl)-5-cyano-3,4-dihydroxytetrahydrofuran-2-yl)methyl octahydropentalene-2-carboxylate] | 185 nM | 800 nM | > 10000 nM | 801 nM |  | 
13 | CCCC(=O)OC[C@H]1O[C@@](C#N)(c2ccc3c(N)ncnn23)[C@H](O)[C@@H]1O [Compound 25, ((2R,3S,4R,5R)-5-(4-aminopyrrolo[2,1-f][1,2,4]triazin-7-yl)-5-cyano-3,4-dihydroxytetrahydrofuran-2-yl)methyl butyrate] | 224 nM | 1220 nM | > 10000 nM | 601 nM |  | 
14 | N#C[C@@]1(c2ccc3c(N)ncnn23)O[C@H](COC(=O)C2CCC2)[C@@H](O)[C@H]1O [Compound 26, ((2R,3S,4R,5R)-5-(4-aminopyrrolo[2,1-f][1,2,4]triazin-7-yl)-5-cyano-3,4-dihydroxytetrahydrofuran-2-yl)methyl cyclobutanecarboxylate] | 337 nM | 1190 nM | > 10000 nM | 1080 nM |  | 
15 | N#C[C@@]1(c2ccc3c(N)ncnn23)O[C@H](COC(=O)C2CC3(CCC3)C2)[C@@H](O)[C@H]1O [Compound 27, ((2R,3S,4R,5R)-5-(4-aminopyrrolo[2,1-f][1,2,4]triazin-7-yl)-5-cyano-3,4-dihydroxytetrahydrofuran-2-yl)methyl spiro[3.3]heptane-2-carboxylate] | 243 nM | 560 nM | > 10000 nM | 1490 nM |  | 
16 | N#C[C@@]1(c2ccc3c(N)ncnn23)O[C@H](COC(=O)C2CCCC2)[C@@H](O)[C@H]1O [Compound 28, ((2R,3S,4R,5R)-5-(4-aminopyrrolo[2,1-f][1,2,4]triazin-7-yl)-5-cyano-3,4-dihydroxytetrahydrofuran-2-yl)methyl cyclopentanecarboxylate] | 268 nM | 430 nM | 40000 nM | 1800 nM |  | 
17 | N#C[C@@]1(c2ccc3c(N)ncnn23)O[C@H](COC(=O)C2CCCCCC2)[C@@H](O)[C@H]1O [Compound 29, ((2R,3S,4R,5R)-5-(4-aminopyrrolo[2,1-f][1,2,4]triazin-7-yl)-5-cyano-3,4-dihydroxytetrahydrofuran-2-yl)methyl cycloheptanecarboxylate] | 194 nM | 300 nM | 38000 nM | 2640 nM |  | 
18 | CC(=O)OC[C@H]1O[C@@](C#N)(c2ccc3c(N)ncnn23)[C@H](O)[C@@H]1O [Compound 30, ((2R,3S,4R,5R)-5-(4-aminopyrrolo[2,1-f][1,2,4]triazin-7-yl)-5-cyano-3,4-dihydroxytetrahydrofuran-2-yl)methyl acetate] | 643 nM | 2320 nM | > 50000 nM | 2370 nM |  | 
19 | CCCCCC(=O)OC[C@H]1O[C@@](C#N)(c2ccc3c(N)ncnn23)[C@H](O)[C@@H]1O [Compound 31, ((2R,3S,4R,5R)-5-(4-aminopyrrolo[2,1-f][1,2,4]triazin-7-yl)-5-cyano-3,4-dihydroxytetrahydrofuran-2-yl)methyl hexanoate] | 198 nM | 320 nM | 24000 nM | 2740 nM |  | 
20 | CC(C)(C)C(=O)OC[C@H]1O[C@@](C#N)(c2ccc3c(N)ncnn23)[C@H](O)[C@@H]1O [Compound 32, ((2R,3S,4R,5R)-5-(4-aminopyrrolo[2,1-f][1,2,4]triazin-7-yl)-5-cyano-3,4-dihydroxytetrahydrofuran-2-yl)methyl pivalate] | 590 nM | 2320 nM | > 50000 nM | 581 nM |  | 
